Key:
Format in all cases: functional
Oryctolagus cuniculus [1] = organism: Oryctolagus cuniculus; assay: The compound was evaluated for the inhibition of Na+-dependent [3H]taurocholate uptake into ileal brush border membrane vesicles in rabbit, by 75%
Oryctolagus cuniculus [2] = organism: Oryctolagus cuniculus; assay: The compound was evaluated for the inhibition of Na+-dependent [3H]taurocholate uptake into ileal brush border membrane vesicles in rabbit, by 25%
Oryctolagus cuniculus [3] = organism: Oryctolagus cuniculus; assay: The compound was evaluated for the inhibition of Na+-dependent [3H]taurocholate uptake into ileal brush border membrane vesicles in rabbit, by 50%
Rattus norvegicus [4] = assay: The compound was evaluated for the percentage inhibition of ileal taurocholate transport, in anesthetized wistar rats at 30 min
Rattus norvegicus [5] = assay: The compound was evaluated for the percentage inhibition of ileal taurocholate transport, in anesthetized wistar rats at 60 min
Rattus norvegicus [6] = assay: The compound was evaluated for the percentage inhibition of ileal taurocholate transport, in anesthetized wistar rats at 12 min
Oryctolagus cuniculus [7] = organism: Oryctolagus cuniculus; assay: The compound was evaluated for the inhibition of Na+-dependent [3H]taurocholate uptake into ileal brush border membrane vesicles in rabbit; by 75%
Oryctolagus cuniculus [8] = organism: Oryctolagus cuniculus; assay: The compound was evaluated for the inhibition of Na+ dependent [3H]taurocholate uptake into ileal brush border membrane vesicles in rabbit; by 25%
Oryctolagus cuniculus [9] = organism: Oryctolagus cuniculus; assay: The compound was evaluated for the inhibition of Na+-dependent [3H]taurocholate uptake into ileal brush border membrane vesicles in rabbit; by 50%
Rattus norvegicus [10] = assay: The compound was evaluated for the percentage inhibition of ileal taurocholate transport; in anesthetized wistar rats at 12 min

SMILES | IC75 (Oryctolagus cuniculus [1]) [µM] | IC25 (Oryctolagus cuniculus [2]) [µM] | IC50 (Oryctolagus cuniculus [3]) [µM] | Inhibition (Rattus norvegicus [4]) [%] | Inhibition (Rattus norvegicus [5]) [%] | Inhibition (Rattus norvegicus [6]) [%] | IC75 (Oryctolagus cuniculus [7]) [µM] | IC25 (Oryctolagus cuniculus [8]) [µM] | IC50 (Oryctolagus cuniculus [9]) [µM] | Inhibition (Rattus norvegicus [10]) [%]
C[C@H](CCC(=O)O)[C@H]1CC[C@H]2[C@@H]3[C@H](O)C[C@@H]4C[C@H](O)CC[C@]4(C)[C@H]3C[C@H](O)[C@]12C | 152 | 40 |  |  |  |  |  |  |  | 
CC(CCC(=O)O)C1CC[C@H]2[C@@H]3[C@H](O)C[C@@H]4C[C@@H](NC(=O)CCC(C)C5CC[C@H]6[C@@H]7CC[C@@H]8C[C@H](O)CC[C@]8(C)[C@H]7CC[C@]56C)CC[C@]4(C)[C@H]3C[C@H](O)[C@]12C (stereo partly specified) | > 250 | 176 | > 250 |  |  |  |  |  |  | 
CC(CCC(=O)N[C@H]1CC[C@@]2(C)[C@@H](C1)C[C@@H](O)[C@@H]1[C@@H]2C[C@H](O)[C@]2(C)C(C(C)CCC(=O)O)CC[C@@H]12)C1CC[C@H]2[C@@H]3[C@H](O)C[C@@H]4C[C@H](O)CC[C@]4(C)[C@H]3C[C@H](O)[C@]12C (stereo partly specified) | 84 | 24 | 48 | 59 | 54 | 51 |  |  |  | 
CC(CCC(=O)O)C1CC[C@H]2[C@@H]3[C@H](O)C[C@@H]4C[C@@H](OCCNC(=O)CCC(=O)NCCCNC(=O)CCC(C)C5CC[C@H]6[C@@H]7[C@H](O)C[C@@H]8C[C@H](OC(c9ccccc9)c9ccccc9)CC[C@]8(C)[C@H]7C[C@H](O)[C@]56C)CC[C@]4(C)[C@H]3C[C@H](O)[C@]12C (stereo partly specified) | 30 | 9 | 19 | 16 | 10 | 26 |  |  |  | 
CC(CCC(=O)O)C1CC[C@H]2[C@@H]3[C@H](O)C[C@@H]4C[C@@H](OCCNC(=O)CCC(C)C5CC[C@H]6[C@@H]7CC[C@@H]8C[C@H](O)CC[C@]8(C)[C@H]7CC[C@]56C)CC[C@]4(C)[C@H]3C[C@H](O)[C@]12C (stereo partly specified) | > 250 | 154 | > 250 |  |  |  |  |  |  | 
CC(CCC(=O)NCCO[C@H]1CC[C@@]2(C)[C@@H](C1)C[C@@H](O)[C@@H]1[C@@H]2C[C@H](O)[C@]2(C)C(C(C)CCC(=O)O)CC[C@@H]12)C1CC[C@H]2[C@@H]3[C@H](O)C[C@@H]4C[C@H](O)CC[C@]4(C)[C@H]3C[C@H](O)[C@]12C (stereo partly specified) |  |  |  | 23 | 18 |  | 57 | 20 | 36 | 23
C[C@H](CCC(=O)NCCS(=O)(=O)O)[C@H]1CC[C@H]2[C@@H]3[C@H](O)C[C@@H]4C[C@H](O)CC[C@]4(C)[C@H]3CC[C@]12C | 61 | 13 |  |  |  |  |  |  |  | 
CC(CCC(=O)O)C1CC[C@H]2[C@@H]3[C@H](O)C[C@@H]4C[C@@H](OCCNC(=O)CCC(C)C5CC[C@H]6[C@@H]7[C@H](O)C[C@@H]8C[C@H](OC(c9ccccc9)c9ccccc9)CC[C@]8(C)[C@H]7C[C@H](O)[C@]56C)CC[C@]4(C)[C@H]3C[C@H](O)[C@]12C (stereo partly specified) | > 250 | 125 | > 250 |  |  |  |  |  |  | 
